Our source for the EC50 values is US11834486B2, “Incretin analogs and uses thereof” (Eli Lilly and Company, priority 2017, dated 2023).

Structures are written as SMILES. *1 amine or outer side, *2 acyl side, *3 side chain or, on linkers, in order; H or OH if unused. Where a SMILES comes first, the peptide text is derived from it. Side-chain parts run from the residue outwards. [ ]: non-standard residue; d: D form. The star is where a group is joined. C20 diacid = O=C(O)CCCCCCCCCCCCCCCCCCC(=O)*; αMePhe(2-F) = C[C@](N)(Cc1ccccc1F)C(=O)O; γGlu = O=C(O)[C@H](CCC(=O)[*:2])N[*:1]; AEEA = NCCOCCOCC(=O)O; Aib = CC(C)(N)C(=O)O

The target of the test is T1, human GIP-R (Homo sapiens, UniProt P48546).
T1 construct: expressed in transfected cells; host or cells: HEK-293 clonal cell line
T1 sequence (P48546 22-466): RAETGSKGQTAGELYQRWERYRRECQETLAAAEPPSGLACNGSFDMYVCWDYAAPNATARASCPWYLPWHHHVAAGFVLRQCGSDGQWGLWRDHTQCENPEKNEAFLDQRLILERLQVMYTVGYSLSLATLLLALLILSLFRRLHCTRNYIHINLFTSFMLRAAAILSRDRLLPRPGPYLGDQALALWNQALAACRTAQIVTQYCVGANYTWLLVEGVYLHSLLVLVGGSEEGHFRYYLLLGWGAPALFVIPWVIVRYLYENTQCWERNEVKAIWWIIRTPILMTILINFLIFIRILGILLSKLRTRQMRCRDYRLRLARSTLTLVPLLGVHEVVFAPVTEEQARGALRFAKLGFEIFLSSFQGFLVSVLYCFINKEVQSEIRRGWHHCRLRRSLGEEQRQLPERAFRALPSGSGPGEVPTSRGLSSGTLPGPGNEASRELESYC
Briefly: cAMP functional activity in GIP-R-expressing HEK-293 cells, FBS and BSA. The format is cell-based. Conditions: in the presence of FBS and BSA; read-out: cAMP EC50, nM (SEM, n) GIPR.

Regarding `CC[C@H](C)[C@H](NC(=O)[C@H](Cc1ccccc1)NC(=O)[C@H](C)NC(=O)C(C)(C)NC(=O)[C@H](CCC(N)=O)NC(=O)[C@H](C)NC(=O)[C@H](CCCCNC(=O)COCCOCCNC(=O)COCCOCCNC(=O)CC[C@H](NC(=O)CCCCCCCCCCCCCCCCCCC(=O)O)C(=O)O)NC(=O)[C@H](CCCCN)NC(=O)[C@H](CC(=O)O)NC(=O)[C@H](CC(C)C)NC(=O)[C@H](CC(C)C)NC(=O)[C@@H](NC(=O)[C@H](CO)NC(=O)[C@H](Cc1ccc(O)cc1)NC(=O)[C@H](CC(=O)O)NC(=O)[C@H](CO)NC(=O)[C@@H](NC(=O)[C@](C)(Cc1ccccc1F)NC(=O)[C@@H](NC(=O)CNC(=O)[C@H](Cc1c[nH]cn1)NC(=O)C(C)(C)NC(=O)[C@@H](N)Cc1ccc(O)cc1)[C@@H](C)O)[C@@H](C)O)[C@@H](C)CC)C(=O)N[C@@H](CCC(=O)O)C(=O)N[C@@H](Cc1ccc(O)cc1)C(=O)N[C@@H](CC(C)C)C(=O)N[C@@H](CC(C)C)C(=O)N[C@@H](CCC(=O)O)C(=O)NCC(=O)NCC(=O)N1CCC[C@H]1C(=O)N[C@@H](CO)C(=O)N[C@@H](CO)C(=O)NCC(=O)N[C@@H](C)C(=O)N1CCC[C@H]1C(=O)N1CCC[C@H]1C(=O)N1CCC[C@H]1C(=O)N[C@@H](CO)C(N)=O` [Example 3] (H-Y[Aib]HGT[αMePhe(2-F)]TSDYSILLDKK([AEEA-AEEA-γGlu-C20 diacid])AQ[Aib]AFIEYLLEGGPSSGAPPPS-NH2), the EC50 is 1.37 nM.
The same measure for `CC[C@H](C)[C@H](NC(=O)[C@H](Cc1ccccc1)NC(=O)[C@H](C)NC(=O)C(C)(C)NC(=O)[C@H](CCC(N)=O)NC(=O)[C@H](C)NC(=O)[C@H](CCCCNC(=O)COCCOCCNC(=O)CC[C@H](NC(=O)CCCCCCCCCCCCCCCCCCC(=O)O)C(=O)O)NC(=O)[C@H](CCCCN)NC(=O)[C@H](CC(=O)O)NC(=O)[C@H](CC(C)C)NC(=O)[C@H](CC(C)C)NC(=O)[C@@H](NC(=O)[C@H](CO)NC(=O)[C@H](Cc1ccc(O)cc1)NC(=O)[C@H](CC(=O)O)NC(=O)[C@H](CO)NC(=O)[C@@H](NC(=O)[C@](C)(Cc1ccccc1F)NC(=O)[C@@H](NC(=O)CNC(=O)[C@H](CCC(N)=O)NC(=O)C(C)(C)NC(=O)[C@@H](N)Cc1ccc(O)cc1)[C@@H](C)O)[C@@H](C)O)[C@@H](C)CC)C(=O)N[C@@H](CCC(=O)O)C(=O)N[C@@H](Cc1ccc(O)cc1)C(=O)N[C@@H](CC(C)C)C(=O)N[C@@H](CC(C)C)C(=O)N[C@@H](CCC(=O)O)C(=O)NCC(=O)NCC(=O)N1CCC[C@H]1C(=O)N[C@@H](CO)C(=O)N[C@@H](CO)C(=O)NCC(=O)N[C@@H](C)C(=O)N1CCC[C@H]1C(=O)N1CCC[C@H]1C(=O)N1CCC[C@H]1C(=O)N[C@@H](CO)C(N)=O` [Example 4]: 1.37 nM.

As a reminder, the EC50 is the midpoint of the concentration-response curve.
